According to US11230547B2, “Purine inhibitors of human phosphatidylinositol 3-kinase delta” (Merck Sharp & Dohme Corp., priority 2017, dated 2022):
pIC50: −log10 of the molar value.

Assays:
PI3Kdelta = PI3Kdelta (Homo sapiens (Human), UniProt O00329); assay: HTRF PI3K biochemical assay, delta isoform; conditions: 0.3 nM enzyme, 100 uM ATP, 5 uM PIP2, form screened per table
Text: (§1) HTRF PI3K Biochemical Assay to Measure Intrinsic Potency of Compound Inhibitors
(§2) The PI3-Kinase biochemical assays were developed to measure the intrinsic potency and compound dependent inhibition of the alpha, beta, delta, and gamma PI3K isoform enzymes. This assay was developed and further optimized from a kit produced by Upstate (Millipore catalog #33-047) (Millipore Sigma, Billerica Mass., USA) and has been configured for high throughput screening (HTS) and structure-activity relationship (SAR) screening. Briefly, this procedure exploits the exquisite specificity and high affinity binding of […] phosphatidyl(3,4,5)triphosphate (PIP3) to the GRP1 pleckstrin homology (PH) domain to generate the signal. In the absence of PIP3, an HTRF (Homogeneous Time-Resolved Fluorescence energy transfer) complex is formed consisting of europium (u)-labeled anti-GST, GST tagged GRP1-PH domain, biotin-PIP3 (biotinylated-PIP3) and streptavidin conjugated APC (Allophycocyanin). The native PIP3 produced by PI3-Kinase activity disrupts in a competitive manner the biotin-PIP3 from the pleckstrin homology (PH) domain, resulting in the loss of energy transfer (HTRF complex) and a decrease in the signal. The format of this assay is the same for all 4 isoforms of PI3K; the differences lie in the concentration of enzyme used to achieve robust assay window. The alpha, beta, and delta assays are run at 0.5, 1, and 0.3 nM enzymes and the gamma assay is run at 5 nM enzyme. The ATP concentration is 100 uM in the alpha, beta, and delta assays and 50 uM adenosine triphosphate (ATP) in the gamma assay. All reactions are run at 5 uM PIP2.
(§3) Compounds are serially diluted (3-fold in 100% DMSO) across a 384-well polypropylene source plated from column 3 to column 12 and column 13 to column 22, to yield 10 concentration dose response for each test compound. Columns 1, 2, 23 and 24 contain either only DMSO or pharmacological known control inhibitor. Once titrations are made, 2.5 nL of the compounds on 384 well plates are reformatted and transferred by acoustic dispense in quadruplicates to a 1536 assay plate (Greiner) to assay across all four PI3K isoform enzymes.
(§4) The PI3-Kinase biochemical assay was optimized using the HTRF kit provided by Upstate (Millipore). The assay kit contains six reagents: 1) 4× Reaction Buffer; 2) native PIP2 (substrate); 3) Stop (EDTA); 4) Detection Mix A (Streptavidin-APC); 5) Detection Mix B (Eu-labeled Anti-GST plus GST-tagged PH-domain); 6) Detection Mix C. In addition, the following items were obtained or purchased; PI3Kinase (catalog #'s alpha 14-602, beta 14-603, gamma 14-558 and delta 14-604 from Upstate Biotechnology now EMD Millipore, Mahopac, N.Y., USA), dithiothreitol (Sigma-Aldrich Corp. (St. Louis, Mo., USA) Catalog #D-5545), Adenosine-5′ triphosphate (InVitrogen (Waltham, Mass., USA), Cat#AS001A), native PIP3 (PI(3,4,5)P3, diC8, H^+, CELLSIGNALS, INC., (Columbus, Ohio, USA) Cat #907) DMSO ((Sigma-Aldrich Corp. (St. Louis, Mo., USA) Catalog #472301).
(§5) PI3Kinase Reaction Buffer is prepared by dilution the stock 1:4 with de-ionized water. DTT (DL-Dithiothreitol), phosphatidylinositol 4,5-bisphosphate (PIP2) and Biotin-PIP3 were added to 1536 assay plate at a final concentration of 5 mM, […] and 25 nM on the day of use. Enzyme addition and compound pre-incubation are initiated by the addition of 1.25 ul of PI3K (at twice its final concentration) in the 1× reaction buffer to all wells using a BioRaptr™ (Beckman Coulter, Waltham, Mass. USA). Plates are incubated at room temperature for 15 minutes. Reactions are initiated by addition of 1.25 ul of 2× substrate solution (PIP2 and ATP in 1× reaction buffer) using BioRaptr™. Plates are incubated in humidified chamber at room temperature for one hour. Reactions are quenched by addition of 0.625 uL of stop solution to all wells using the BioRaptr™. […]

PI3Kalpha = PI3Kalpha (Homo sapiens (Human), UniProt P42336); assay: HTRF PI3K biochemical assay, alpha isoform (selectivity versus delta); conditions: relative ratio PI3K-alpha IC50 value / PI3K-delta IC50 value
Text: as §1, §2, §3, §4, §5

PI3Kdelta, sequence (O00329 whole entry, canonical isoform): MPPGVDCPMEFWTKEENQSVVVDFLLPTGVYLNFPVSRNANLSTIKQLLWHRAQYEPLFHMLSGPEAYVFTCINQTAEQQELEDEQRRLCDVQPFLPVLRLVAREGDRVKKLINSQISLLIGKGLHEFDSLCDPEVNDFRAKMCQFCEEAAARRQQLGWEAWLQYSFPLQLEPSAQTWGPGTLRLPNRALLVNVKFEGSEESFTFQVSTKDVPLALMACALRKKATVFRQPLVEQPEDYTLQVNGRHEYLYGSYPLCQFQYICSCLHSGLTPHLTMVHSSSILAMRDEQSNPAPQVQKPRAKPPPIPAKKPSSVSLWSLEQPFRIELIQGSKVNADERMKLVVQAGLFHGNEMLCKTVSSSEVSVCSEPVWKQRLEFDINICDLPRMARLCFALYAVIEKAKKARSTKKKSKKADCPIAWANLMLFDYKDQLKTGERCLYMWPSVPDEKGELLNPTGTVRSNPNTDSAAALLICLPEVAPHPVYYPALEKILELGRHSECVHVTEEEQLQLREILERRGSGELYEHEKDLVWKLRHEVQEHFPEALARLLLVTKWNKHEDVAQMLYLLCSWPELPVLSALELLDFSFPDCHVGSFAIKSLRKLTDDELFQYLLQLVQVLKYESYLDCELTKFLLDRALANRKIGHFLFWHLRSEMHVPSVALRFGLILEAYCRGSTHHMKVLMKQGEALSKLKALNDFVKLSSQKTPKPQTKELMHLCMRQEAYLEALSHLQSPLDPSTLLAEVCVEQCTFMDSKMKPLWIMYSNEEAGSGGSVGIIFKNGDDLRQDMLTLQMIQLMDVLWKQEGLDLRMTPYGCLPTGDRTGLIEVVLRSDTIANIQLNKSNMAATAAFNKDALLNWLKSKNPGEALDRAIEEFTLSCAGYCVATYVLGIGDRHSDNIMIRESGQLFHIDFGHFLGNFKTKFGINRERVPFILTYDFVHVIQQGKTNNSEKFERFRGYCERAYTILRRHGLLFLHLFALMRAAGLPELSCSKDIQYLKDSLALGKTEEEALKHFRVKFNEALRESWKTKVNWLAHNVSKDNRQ
PI3Kdelta, sequence (P27986 whole entry partner, canonical isoform): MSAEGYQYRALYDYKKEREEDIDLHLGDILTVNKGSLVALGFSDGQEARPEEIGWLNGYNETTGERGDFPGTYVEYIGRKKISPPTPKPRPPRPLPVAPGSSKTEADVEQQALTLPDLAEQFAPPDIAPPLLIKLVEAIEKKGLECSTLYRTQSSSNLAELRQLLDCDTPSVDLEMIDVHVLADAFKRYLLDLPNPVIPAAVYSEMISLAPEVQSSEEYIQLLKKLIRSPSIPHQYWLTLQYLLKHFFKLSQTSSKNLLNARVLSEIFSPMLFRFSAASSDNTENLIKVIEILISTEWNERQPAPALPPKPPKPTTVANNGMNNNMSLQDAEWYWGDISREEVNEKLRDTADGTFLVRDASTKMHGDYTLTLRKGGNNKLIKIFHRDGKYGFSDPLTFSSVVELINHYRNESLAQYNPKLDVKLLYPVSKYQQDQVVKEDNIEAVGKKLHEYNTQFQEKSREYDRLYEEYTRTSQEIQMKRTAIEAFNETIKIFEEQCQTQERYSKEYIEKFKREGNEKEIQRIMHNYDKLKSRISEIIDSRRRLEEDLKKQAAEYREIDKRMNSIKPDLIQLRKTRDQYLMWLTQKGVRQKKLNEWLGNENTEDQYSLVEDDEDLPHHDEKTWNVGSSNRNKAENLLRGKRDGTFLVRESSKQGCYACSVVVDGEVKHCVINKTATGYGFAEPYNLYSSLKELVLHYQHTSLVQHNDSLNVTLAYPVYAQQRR
PI3Kalpha, sequence (P42336 whole entry, canonical isoform): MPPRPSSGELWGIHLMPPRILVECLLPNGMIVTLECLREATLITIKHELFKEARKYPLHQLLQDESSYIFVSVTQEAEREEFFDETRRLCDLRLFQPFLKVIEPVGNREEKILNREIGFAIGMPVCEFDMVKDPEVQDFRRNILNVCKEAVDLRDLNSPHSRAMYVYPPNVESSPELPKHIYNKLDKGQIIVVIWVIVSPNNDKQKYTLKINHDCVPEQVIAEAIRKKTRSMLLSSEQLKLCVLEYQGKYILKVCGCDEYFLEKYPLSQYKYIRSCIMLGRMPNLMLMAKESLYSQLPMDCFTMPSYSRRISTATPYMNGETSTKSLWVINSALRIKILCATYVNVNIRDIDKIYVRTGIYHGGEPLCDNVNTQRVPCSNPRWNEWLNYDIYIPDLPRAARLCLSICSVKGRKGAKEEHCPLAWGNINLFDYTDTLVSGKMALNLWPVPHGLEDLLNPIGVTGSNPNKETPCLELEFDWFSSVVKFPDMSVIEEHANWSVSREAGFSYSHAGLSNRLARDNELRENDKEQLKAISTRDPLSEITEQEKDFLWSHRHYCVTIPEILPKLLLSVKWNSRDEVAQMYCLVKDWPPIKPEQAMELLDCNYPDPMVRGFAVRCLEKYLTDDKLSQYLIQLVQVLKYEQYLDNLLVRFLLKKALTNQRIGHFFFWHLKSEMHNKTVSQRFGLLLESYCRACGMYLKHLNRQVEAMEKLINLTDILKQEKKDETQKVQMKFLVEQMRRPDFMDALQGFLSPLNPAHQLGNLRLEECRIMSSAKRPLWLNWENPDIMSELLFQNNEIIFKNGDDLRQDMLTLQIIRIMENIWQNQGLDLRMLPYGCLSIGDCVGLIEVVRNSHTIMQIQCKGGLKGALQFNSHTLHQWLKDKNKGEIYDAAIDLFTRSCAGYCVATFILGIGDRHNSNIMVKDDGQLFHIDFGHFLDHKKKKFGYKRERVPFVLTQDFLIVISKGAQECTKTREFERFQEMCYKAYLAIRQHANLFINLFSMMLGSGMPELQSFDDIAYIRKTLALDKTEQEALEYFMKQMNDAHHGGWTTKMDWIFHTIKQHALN
PI3Kalpha, sequence (P27986 whole entry partner, canonical isoform): as the sequence (P27986 whole entry partner, canonical isoform) above

pIC50 (PI3Kdelta)	Selectivity versus PI3Kalpha (PI3Kalpha)	SMILES
7.38	>10	N#Cc1cnc(-c2cn[nH]c2)nc1N1C[C@@H]2C[C@H]1CN2c1cccc(F)c1 [Compound 1-7, 4-[(1S,4S)-5-(3-fluorophenyl)-2,5-diazabicyclo[2.2.1]hept-2-yl]-2-(1H-pyrazol-4-yl)pyrimidine-5-carbonitrile]
7.51	>10	Cn1cc(-c2ncc(C#N)c(N3C[C@@H]4C[C@H]3CN4c3cccc(F)c3)n2)cn1 [Compound 1-16, 4-[(1S,4S)-5-(3-fluorophenyl)-2,5-diazabicyclo[2.2.1]hept-2-yl]-2-(1-methyl-1H-pyrazol-4-yl)pyrimidine-5-carbonitrile]
5.82	8	Cn1cc(-c2ncc(C#N)c(N3CCN(c4cccc(F)c4)C(C)(C)C3)n2)cn1 [Compound 3-1, 4-[4-(3-fluorophenyl)-3,3-dimethylpiperazin-1-yl]-2-(1-methyl-1H-pyrazol-4-yl)pyrimidine-5-carbonitrile]
5.80	7	Cn1cc(-c2ncc(C#N)c(N3CCN(c4cccc(F)c4)CC3)n2)cn1 [Compound 3-2, 4-[4-(3-fluorophenyl)piperazin-1-yl]-2-(1-methyl-1H-pyrazol-4-yl)pyrimidine-5-carbonitrile]
6.77	>10	C[C@@H]1CN(c2nc(-c3cnn(C)c3)ncc2C#N)CCN1c1cccc(F)c1 [Compound 3-3, 4-[(3R)-4-(3-fluorophenyl)-3-methylpiperazin-1-yl]-2-(1-methyl-1H-pyrazol-4-yl)pyrimidine-5-carbonitrile]
6.96	>10	C[C@@H]1CN(c2nc(-c3cnn(C)c3)ncc2C#N)CCN1C(=O)C1CC1 [Compound 4-1, 4-[(3R)-4-(cyclopropylcarbonyl)-3-methylpiperazin-1-yl]-2-(1-methyl-1H-pyrazol-4-yl)pyrimidine-5-carbonitrile]
6.59	>10	CCC(=O)N1CCN(c2nc(-c3cnn(C)c3)ncc2C#N)C[C@H]1C [Compound 4-2, 4-[(3R)-3-methyl-4-propanoylpiperazin-1-yl]-2-(1-methyl-1H-pyrazol-4-yl)pyrimidine-5-carbonitrile]
6.43	>10	C[C@@H]1CN(c2nc(-c3cnn(C)c3)ncc2C#N)CCN1C(=O)C1CCC1 [Compound 4-3, 4-[(3R)-4-(cyclobutylcarbonyl)-3-methylpiperazin-1-yl]-2-(1-methyl-1H-pyrazol-4-yl)pyrimidine-5-carbonitrile]
5.96	>10	C[C@@H]1CN(c2nc(-c3cnn(C)c3)ncc2C#N)CCN1C(=O)C1(C)CC1 [Compound 4-4, 4-{(3R)-3-methyl-4-[(1-methylcyclopropyl)carbonyl]piperazin-1-yl}-2-(1-methyl-1H-pyrazol-4-yl)pyrimidine-5-carbonitrile]
6.26	>10	C[C@@H]1CN(c2nc(-c3cnn(C)c3)ncc2C#N)CCN1C(=O)C1CCC1(F)F (stereo partly drawn) [Compound 4-5, 4-{(3R)-4-[(2,2-difluorocyclobutyl)carbonyl]-3-methylpiperazin-1-yl}-2-(1-methyl-1H-pyrazol-4-yl)pyrimidine-5-carbonitrile]
6.06	>10	C[C@@H]1CN(c2nc(-c3cnn(C)c3)ncc2C#N)CCN1C(=O)C1CCCC1 [Compound 4-6, 4-[(3R)-4-(cyclopentylcarbonyl)-3-methylpiperazin-1-yl]-2-(1-methyl-1H-pyrazol-4-yl)pyrimidine-5-carbonitrile]
7.06	>10	C[C@@H]1CN(c2nc(-c3cnn(C)c3)ncc2C#N)CCN1C(=O)C1CC12CCCC2 (stereo partly drawn) [Compound 4-7, 2-(1-methyl-1H-pyrazol-4-yl)-4-[(3R)-3-methyl-4-(spiro[2.4]hept-1-ylcarbonyl)piperazin-1-yl]pyrimidine-5-carbonitrile]
7.49	>10	C[C@@H]1C[C@H]1C(=O)N1CCN(c2nc(-c3cnn(C)c3)ncc2C#N)C[C@H]1C [Compound 4-8, 4-[(3R)-3-methyl-4-{[(1R,2R)-2-methylcyclopropyl]carbonyl}piperazin-1-yl]-2-(1-methyl-1H-pyrazol-4-yl)pyrimidine-5-carbonitrile]
7.10	>10	C[C@@H]1C[C@@H]1C(=O)N1CCN(c2nc(-c3cnn(C)c3)ncc2C#N)C[C@H]1C [Compound 4-9, 4-[(3R)-3-methyl-4-{[(1S,2R)-2-methylcyclopropyl]carbonyl}piperazin-1-yl]-2-(1-methyl-1H-pyrazol-4-yl)pyrimidine-5-carbonitrile]
7.11	>10	C[C@@H]1CN(c2nc(-c3cnn(C)c3)ncc2C#N)CCN1c1cccc([N+](=O)[O-])c1 [Compound 4-11, 4-[(3R)-3-methyl-4-(3-nitrophenyl)piperazin-1-yl]-2-(1-methyl-1H-pyrazol-4-yl)pyrimidine-5-carbonitrile]
7.07	>10	C[C@@H]1CN(c2nc(-c3cnn(C)c3)ncc2C#N)CCN1c1cccc(C#N)c1 [Compound 4-12, 4-[(3R)-4-(3-cyanophenyl)-3-methylpiperazin-1-yl]-2-(1-methyl-1H-pyrazol-4-yl)pyrimidine-5-carbonitrile]
7.52	>10	C[C@@H]1CN(c2nc(-c3cnn(C)c3)ncc2C#N)CCN1c1cccc(S(C)(=O)=O)c1 [Compound 4-13, 4-{(3R)-3-methyl-4-[3-(methylsulfonyl)phenyl]piperazin-1-yl}-2-(1-methyl-1H-pyrazol-4-yl)pyrimidine-5-carbonitrile]
7.72	>10	C[C@@H]1CN(c2ncc(C#CCO)c(-c3cnn(C)c3)n2)CCN1C(=O)C1CC1 [Compound 5-1, 3-{2-[(3R)-4-(cyclopropylcarbonyl)-3-methylpiperazin-1-yl]-4-(1-methyl-1H-pyrazol-4-yl)pyrimidin-5-yl}prop-2-yn-1-ol]
6.62	>10	C[C@@H]1CN(c2nc(C#N)cc(-c3cnn(C)c3)n2)CCN1C(=O)C1CC1 [Compound 5-2, 2-[(3R)-4-(cyclopropylcarbonyl)-3-methylpiperazin-1-yl]-6-(1-methyl-1H-pyrazol-4-yl)pyrimidine-4-carbonitrile]
6.62	>10	C[C@@H]1CN(c2cc(C#N)nc(-c3cnn(C)c3)n2)CCN1C(=O)C1CC1 [Compound 5-3, 6-[(3R)-4-(cyclopropylcarbonyl)-3-methylpiperazin-1-yl]-2-(1-methyl-1H-pyrazol-4-yl)pyrimidine-4-carbonitrile]
7.68	>10	C[C@@H]1CN(c2ncc(C#N)c(-c3cnn(C)c3)n2)CCN1C(=O)C1CC1 [Compound 5-4, 2-[(3R)-4-(cyclopropylcarbonyl)-3-methylpiperazin-1-yl]-4-(1-methyl-1H-pyrazol-4-yl)pyrimidine-5-carbonitrile]

SMILES	pIC50 (PI3Kdelta)	Selectivity versus PI3Kalpha (PI3Kalpha)
Cn1cc(-c2ncc(C#N)c(N3CC4CCC(C3)N4c3cccc(F)c3)n2)cn1 [Compound 3-4, 4-[8-(3-fluorophenyl)-3,8-diazabicyclo[3.2.1]oct-3-yl]-2-(1-methyl-1H-pyrazol-4-yl)pyrimidine-5-carbonitrile]	6.00	>10
